The text below walks through data of ChEMBL document CHEMBL6182930, “Discovery of TBK1Molecular Glue Degraders as a Potential Strategy for the Treatment of Autosomal Dominant Polycystic Kidney Disease (ADPKD)” (J Med Chem, 2025).

The source made the active and inactive calls. The calls are words filed in the database; no cut-off is given here.

Series [1] deals with T1, E3 ubiquitin-protein ligase RNF126/Serine/threonine-protein kinase TBK1 (Homo sapiens, UniProt Q9UHD2+Q9BV68). Description: Molecular glue activity at RNF126/TBK1 in human A549 cells assessed as induction of TBK1 degradation at 1 uM by Western blot analysis. Format: cell-based. To be noted: time 2-24 hrs. On the technique in general: A western blot detects proteins with antibodies after separation by electrophoresis.

Series [2] in a line: Tmax in rat at 2 mg/kg, iv measured after 24 hrs by LC-MS/MS analysis. To be noted: in vivo. The format is ADME, organism-based.
Series [3] in a line: Half-life in rat at 2 mg/kg, iv measured after 24 hrs by LC-MS/MS analysis. The format is ADME, organism-based. To be noted: in vivo.
For series [4], the target named is T1, E3 ubiquitin-protein ligase RNF126/Serine/threonine-protein kinase TBK1. Description: Molecular glue activity at RNF126/TBK1 in HEK293T cells assessed as induction of TBK1 degradation at 1 uM by Western blot analysis. Format: cell-based. To be noted: time 2-24 hrs.
Series [5] has the same target. Description: Molecular glue activity at RNF126/TBK1 in HEK293T cells assessed as induction of TBK1 degradation at 1 uM pretreated with MLN4924 for 2 hrs followed by compound addition and measured after 16 hrs by Western blot analysis. Format: cell-based.
Series [6] deals with Mus musculus. Description: Anti-inflammatory activity in PKD1 knockout ADPKD (Pkd1 flox/flox; Ksp-Cre) C57BL/6 mouse model assessed as decrease in IL-1beta level in kidney at 5 mg/kg, SC administered from postnatal day 6 and measured on postnatal day 12 by RT-qPCR analysis. Format: functional, organism-based. To be noted: time 7.0 day. (Quantitative PCR measures a nucleic acid by following its amplification.)

Series [7] deals with Mus musculus. Description: Anti-inflammatory activity in PKD1 knockout ADPKD (Pkd1 flox/flox; Ksp-Cre) C57BL/6 mouse model assessed as decrease in IFN-beta level in kidney at 5 mg/kg, SC administered from postnatal day 6 and measured on postnatal day 12 by RT-qPCR analysis. The format is functional, organism-based. To be noted: time 7.0 day.
Series [8] has as its system Mus musculus. Description: In vivo molecular glue activity at RNF126/TBK1 in PKD1 knockout ADPKD (Pkd1 flox/flox; Ksp-Cre) C57BL/6 mouse model assessed as decrease in TBK1 level in kidney at 5 mg/kg, SC administered from postnatal day 6 and measured on postnatal day 12 by Western blot analysis. The format is functional, organism-based. To be noted: time 7.0 day.
The target of series [9] is T1, E3 ubiquitin-protein ligase RNF126/Serine/threonine-protein kinase TBK1. Description: Molecular glue activity at RNF126/TBK1 in human A549 cells assessed as induction of TBK1 degradation at 1 uM incubated for 16 hrs by Western blot analysis. The format is cell-based.
The subject of series [10] is Mus musculus. Description: In vivo inhibition of TBK1-mediated activation of inflammatory pathway in PKD1 knockout ADPKD (Pkd1 flox/flox; Ksp-Cre) C57BL/6 mouse model assessed as decrease in phosphorylated IRF3 level in kidney at 5 mg/kg, SC administered from postnatal day 6 and measured on postnatal day 12 by Western blot analysis. The format is functional, organism-based. To be noted: time 7.0 day.

Series [11] has as its target T1, E3 ubiquitin-protein ligase RNF126/Serine/threonine-protein kinase TBK1. Description: Molecular glue activity at RNF126/TBK1 in HEK293T cells assessed as induction of TBK1 degradation at 1 uM incubated for 16 hrs by Western blot analysis. The format is cell-based.
For series [12] the target is unchanged. Description: Molecular glue activity at RNF126/TBK1 in human A549 cells assessed as induction of TBK1 degradation at 1 uM measured after 24 hrs by Western blot analysis. The format is cell-based.
Series [13] can be described thus: AUC (0 to infinity) in rat at 2 mg/kg, iv measured after 24 hrs by LC-MS/MS analysis. The format is ADME, organism-based. To be noted: in vivo.
The target of series [14] is T1, E3 ubiquitin-protein ligase RNF126/Serine/threonine-protein kinase TBK1. Description: Molecular glue activity at RNF126/TBK1 in human A549 cells assessed as induction of TBK1 degradation at 1 uM pretreated with MLN4924 for 2 hrs followed by compound addition and measured after 16 hrs by Western blot analysis. Format: cell-based.
Series [15] has the same target. Description: Molecular glue activity at RNF126/TBK1 in HEK293T cells assessed as induction of TBK1 degradation at 1 uM measured after 6 hrs by Western blot analysis. Format: cell-based.

T1 sequence (Q9BV68 2-311 partner limits assumed): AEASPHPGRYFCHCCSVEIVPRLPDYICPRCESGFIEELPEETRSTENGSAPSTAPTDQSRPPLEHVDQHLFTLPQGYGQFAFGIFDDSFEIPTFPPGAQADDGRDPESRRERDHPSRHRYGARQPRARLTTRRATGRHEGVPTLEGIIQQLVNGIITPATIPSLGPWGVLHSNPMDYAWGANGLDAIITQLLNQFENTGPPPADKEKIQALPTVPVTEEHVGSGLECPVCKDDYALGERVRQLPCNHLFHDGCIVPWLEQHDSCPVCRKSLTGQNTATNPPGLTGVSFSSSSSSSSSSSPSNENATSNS
T1 sequence (Q9UHD2 whole entry): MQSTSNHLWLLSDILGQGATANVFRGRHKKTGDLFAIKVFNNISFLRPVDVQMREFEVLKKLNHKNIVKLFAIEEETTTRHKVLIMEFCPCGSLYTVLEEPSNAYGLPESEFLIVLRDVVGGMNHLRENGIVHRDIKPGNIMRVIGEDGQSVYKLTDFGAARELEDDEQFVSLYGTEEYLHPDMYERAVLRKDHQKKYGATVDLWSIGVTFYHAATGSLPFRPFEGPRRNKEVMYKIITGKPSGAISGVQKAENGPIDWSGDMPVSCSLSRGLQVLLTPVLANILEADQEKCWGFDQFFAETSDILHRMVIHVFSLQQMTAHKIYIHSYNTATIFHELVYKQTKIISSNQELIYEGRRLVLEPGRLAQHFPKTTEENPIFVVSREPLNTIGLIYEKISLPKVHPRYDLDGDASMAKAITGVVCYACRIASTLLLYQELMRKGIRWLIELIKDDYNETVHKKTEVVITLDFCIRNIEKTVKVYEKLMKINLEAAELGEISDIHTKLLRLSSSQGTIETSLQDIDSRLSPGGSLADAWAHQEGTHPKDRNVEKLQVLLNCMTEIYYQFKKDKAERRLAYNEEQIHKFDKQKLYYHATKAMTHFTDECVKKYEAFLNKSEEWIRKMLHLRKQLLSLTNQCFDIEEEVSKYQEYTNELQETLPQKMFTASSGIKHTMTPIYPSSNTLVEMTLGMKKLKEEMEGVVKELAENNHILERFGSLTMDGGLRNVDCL

What is called Tmax is the time at which the peak concentration occurs. For orientation: half-life means how long it takes for the measured level to halve. A high value points to slow decline. What is called AUC(0-inf) is total exposure, with the tail of the curve extrapolated. A higher AUC(0-inf) goes with high exposure. In the case of `COc1ccc(C(=O)/C=C/C(=O)N2CCN(CC3CCN(Cc4cccc(Nc5ncc6ccn(CCCNC(=O)C7CCC7)c6n5)c4)CC3)CC2)cc1`, the Activity result in series [1] was “Time-dependent-effect”; in series [4], “Time-dependent-effect”; in [5] it was “Active; Degradation In Independent Of Crl-Related Pathway”; in series [12], “Active; Maximal Tbk1 Degradation Observed”; in series [14] it was “Active; Degradation In Independent Of Crl-Related Pathway”; in series [15] it was “Active; Significant Reduction In Tbk1 Level Observed”. For the same molecule, in [2], the Tmax came out at 4.8 min. In series [3], this molecule gave a half-life of 4.47 h. Further, the outcome (in the series on Mus musculus [6]; with Mus musculus [7]; in the series with Mus musculus [8]; in [9]; in series [11]) was Active. In addition, in the series with Mus musculus [10], the inhibition result was “Active”. Further, the AUC(0-inf) in [13] came to 1.03 µM·h.
